Data taken from PubChem BioAssay (NCI).
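Briefly, cells in 96-well plates were exposed to five compound concentrations for 48 h, and endpoints were estimated by linear interpolation. The concentration for 50% growth inhibition is given as GI50. TGI denotes the concentration required for complete inhibition of growth.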

Columns and labels:
Test in all cases: NCI-60 cell line screen, 48 h
[1] = system: 786-0 renal
[2] = system: A498 renal
[3] = system: A549 NSCLC
[4] = system: ACHN renal
[5] = system: BT-549 breast
[6] = system: CAKI-1 renal
[7] = system: CCRF-CEM leukemia
[8] = system: COLO 205 colon
[9] = system: DU-145 prostate
[10] = system: EKVX NSCLC
[11] = system: HCC-2998 colon
[12] = system: HCT-116 colon
[13] = system: HCT-15 colon
[14] = system: HL-60(TB) leukemia
[15] = system: HOP-62 NSCLC
[16] = system: HOP-92 NSCLC
[17] = system: HS 578T breast
[18] = system: HT29 colon
[19] = system: IGROV1 ovarian
[20] = system: K-562 leukemia
[21] = system: KM12 colon
[22] = system: LOX IMVI melanoma
[23] = system: M14 melanoma
[24] = system: MALME-3M melanoma
[25] = system: MCF7 breast
[26] = system: MDA-MB-231 breast
[27] = system: MOLT-4 leukemia
[28] = system: NCI-H226 lung
[29] = system: NCI-H23 lung
[30] = system: NCI-H460 lung
[31] = system: NCI-H522 lung
[32] = system: NCI/ADR-RES ovarian
[33] = system: OVCAR-3 ovarian
[34] = system: OVCAR-4 ovarian
[35] = system: OVCAR-5 ovarian
[36] = system: OVCAR-8 ovarian
[37] = system: PC-3 prostate
[38] = system: RPMI-8226 leukemia
[39] = system: RXF 393 renal
[40] = system: SF-268 CNS
[41] = system: SF-295 CNS
[42] = system: SF-539 CNS
[43] = system: SK-MEL-2 melanoma
[44] = system: SK-MEL-28 melanoma
[45] = system: SK-MEL-5 melanoma
[46] = system: SK-OV-3 ovarian
[47] = system: SN12C renal
[48] = system: SNB-19 CNS
[49] = system: SNB-75 CNS
[50] = system: SR leukemia
[51] = system: SW-620 colon
[52] = system: T-47D breast
[53] = system: TK-10 renal
[54] = system: U251 CNS
[55] = system: UACC-257 melanoma
[56] = system: UACC-62 melanoma
[57] = system: UO-31 renal

Compound: Nc1nc2cc(O)ccc2n2cc3c(F)cccc3c12
- GI50 [1]: 3.56 µM
- TGI [1]: > 100 µM
- GI50 [2]: 10.1 µM
- TGI [2]: > 100 µM
- GI50 [3]: 1.27 µM
- TGI [3]: > 100 µM
- GI50 [4]: 1.85 µM
- TGI [4]: > 100 µM
- GI50 [5]: 6.92 µM
- TGI [5]: > 100 µM
- GI50 [6]: 0.733 µM
- TGI [6]: > 93.1 µM
- GI50 [7]: 2.28 µM
- TGI [7]: > 100 µM
- GI50 [8]: 5.86 µM
- TGI [8]: > 100 µM
- GI50 [9]: 6.38 µM
- TGI [9]: > 100 µM
- GI50 [10]: 3.38 µM
- TGI [10]: > 100 µM
- GI50 [11]: > 20.4 µM
- TGI [11]: > 100 µM
- GI50 [12]: 0.724 µM
- TGI [12]: > 100 µM
- GI50 [13]: 0.62 µM
- TGI [13]: > 100 µM
- GI50 [14]: 1.23 µM
- TGI [14]: > 100 µM
- GI50 [15]: 2.14 µM
- TGI [15]: > 100 µM
- GI50 [16]: 2.43 µM
- TGI [16]: > 85.6 µM
- GI50 [17]: 3.68 µM
- TGI [17]: > 100 µM
- GI50 [18]: 4.46 µM
- TGI [18]: > 100 µM
- GI50 [19]: 1.67 µM
- TGI [19]: > 100 µM
- GI50 [20]: 0.447 µM
- TGI [20]: > 100 µM
- GI50 [21]: 0.654 µM
- TGI [21]: > 100 µM
- GI50 [22]: 1.02 µM
- TGI [22]: > 100 µM
- GI50 [23]: 1.24 µM
- TGI [23]: > 100 µM
- GI50 [24]: 3.78 µM
- TGI [24]: > 100 µM
- GI50 [25]: 1.26 µM
- TGI [25]: > 100 µM
- GI50 [26]: 4.74 µM
- TGI [26]: > 100 µM
- GI50 [27]: 1.51 µM
- TGI [27]: > 100 µM
- GI50 [28]: 2.97 µM
- TGI [28]: > 100 µM
- GI50 [29]: 3.91 µM
- TGI [29]: > 100 µM
- GI50 [30]: 0.402 µM
- TGI [30]: > 100 µM
- GI50 [31]: 1.22 µM
- TGI [31]: > 100 µM
- GI50 [32]: 0.964 µM
- TGI [32]: > 100 µM
- GI50 [33]: 6.21 µM
- TGI [33]: > 100 µM
- GI50 [34]: 6.81 µM
- TGI [34]: > 100 µM
- GI50 [35]: 9.85 µM
- TGI [35]: > 100 µM
- GI50 [36]: 3.47 µM
- TGI [36]: > 100 µM
- GI50 [37]: 3.67 µM
- TGI [37]: > 100 µM
- GI50 [38]: 3.37 µM
- TGI [38]: > 100 µM
- GI50 [39]: 1.75 µM
- TGI [39]: 26.8 µM
- GI50 [40]: 1.98 µM
- TGI [40]: > 100 µM
- GI50 [41]: 2.46 µM
- TGI [41]: > 100 µM
- GI50 [42]: 1.31 µM
- TGI [42]: > 100 µM
- GI50 [43]: 3.76 µM
- TGI [43]: > 100 µM
- GI50 [44]: 4.86 µM
- TGI [44]: > 100 µM
- GI50 [45]: 0.334 µM
- TGI [45]: > 100 µM
- GI50 [46]: 2.37 µM
- TGI [46]: > 100 µM
- GI50 [47]: 2.22 µM
- TGI [47]: > 100 µM
- GI50 [48]: 2.31 µM
- TGI [48]: > 100 µM
- GI50 [49]: 1.44 µM
- TGI [49]: 7.34 µM
- GI50 [50]: 0.462 µM
- TGI [50]: 32.8 µM
- GI50 [51]: 0.493 µM
- TGI [51]: > 100 µM
- GI50 [52]: 5.89 µM
- TGI [52]: > 100 µM
- GI50 [53]: > 20.9 µM
- TGI [53]: > 100 µM
- GI50 [54]: 2.64 µM
- TGI [54]: > 100 µM
- GI50 [55]: 4.37 µM
- TGI [55]: > 100 µM
- GI50 [56]: 1.23 µM
- TGI [56]: > 100 µM
- GI50 [57]: 0.917 µM
- TGI [57]: > 79.8 µM
